In ChEMBL document CHEMBL4813953, “Kinetics-Driven Drug Design Strategy for Next-Generation Acetylcholinesterase Inhibitors to Clinical Candidate” (J Med Chem, 2021):
Calls of active or inactive are those of the source. The rule behind the calls is not given here.

Key:
[1] = Cmax in human plasma at 4 mg, po; type: ADME, cell-free; parameters: route oral, dose 4 mg
[2] = Tmax in human plasma at 1 mg, po; type: ADME, cell-free
[3] = AUC (0 to t) in Sprague-Dawley rat plasma at 10 mg/kg, po; type: ADME, organism-based; parameters: dose 10 mg/kg
[4] = Toxicity in Beagle dog assessed as effect on blood pressure at 0.1 to 1 mg/kg; type: organism-based, Canis lupus familiaris; conditions: in vivo, dose 0.1-1 mg/kg
[5] = AUC (0 to infinity) in Beagle dog at 0.25 mg/kg, po; type: ADME, organism-based, Canis lupus familiaris; parameters: route oral, time infinity, dose 0.25 mg/kg; conditions: in vivo
[6] = Half life in Beagle dog at 0.25 mg/kg, po; type: ADME, organism-based, Canis lupus familiaris; conditions: in vivo
[7] = Mutagenecity against CHL cells; type: ADME, cell-based, Cricetulus griseus; conditions: chinese hamster
[8] = biological target: Cytochrome P450 2D6 (Homo sapiens, UniProt P10635); test: Inhibition of CYP2D6 in human hepatocytes; type: ADME, cell-based, Hepatocyte
Cytochrome P450 2D6, sequence (P10635 whole entry): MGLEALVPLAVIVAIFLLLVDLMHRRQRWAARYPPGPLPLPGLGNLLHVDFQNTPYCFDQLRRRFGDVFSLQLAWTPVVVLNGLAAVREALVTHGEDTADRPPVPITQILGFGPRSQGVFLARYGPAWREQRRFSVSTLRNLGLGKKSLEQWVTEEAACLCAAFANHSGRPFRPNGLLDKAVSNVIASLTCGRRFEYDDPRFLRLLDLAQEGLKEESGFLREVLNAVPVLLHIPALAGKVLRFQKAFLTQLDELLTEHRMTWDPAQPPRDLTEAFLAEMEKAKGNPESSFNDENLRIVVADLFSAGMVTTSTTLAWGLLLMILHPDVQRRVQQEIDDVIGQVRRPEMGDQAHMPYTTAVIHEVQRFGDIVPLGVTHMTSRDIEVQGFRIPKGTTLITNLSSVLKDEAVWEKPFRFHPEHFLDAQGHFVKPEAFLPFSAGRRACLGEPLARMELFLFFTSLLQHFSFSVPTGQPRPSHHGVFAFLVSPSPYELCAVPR

[9] = Genotoxicity in Salmonella typhimurium TA1535 by Ames test; type: toxicity; conditions: salmonella enterica subsp. enterica serovar typhimurium
[10] = Cmax in human plasma at 12 mg, po; type: ADME, cell-free; parameters: route oral, dose 12 mg
[11] = Genotoxicity in Salmonella typhimurium TA102 by Ames test; type: toxicity; conditions: salmonella enterica subsp. enterica serovar typhimurium
[12] = Terminal half life in human plasma at 4 mg, po; type: ADME, cell-free; conditions: read-out: beta t1/2 (converted)
[13] = system: Mus musculus; test: Cognitive enhancing effect in mouse model of scopolamine-induced memory impairment assessed as reduction in escape latency time at 0.5 to 2 mg/kg, IG QD for 3 days by channel water maze test; type: functional, organism-based; conditions: dose 0.5-2 mg/kg, time 3.0 day
[14] = Half life in Sprague-Dawley rat brain at 10 mg/kg, po; type: ADME, organism-based
[15] = MRT (0 to infinity) in Sprague-Dawley rat at 0.5 mg/kg, iv; type: ADME, organism-based; conditions: in vivo
[16] = Volume of distribution at steady state in Beagle dog at 0.5 mg/kg, po or iv; type: ADME, organism-based, Canis lupus familiaris; conditions: in vivo, read-out: Vdss
[17] = Clearance in Sprague-Dawley rat at 0.5 mg/kg, iv; type: ADME, organism-based; conditions: in vivo
[18] = Oral bioavailability in Beagle dog at 0.25 mg/kg; type: ADME, organism-based, Canis lupus familiaris; conditions: in vivo
[19] = biological target: Butyrylcholinesterase (Rattus norvegicus, UniProt Q9JKC1); test: Inhibition of rat serum BuChE using S-butyrylthiocholine iodide as substrate incubated for 8 mins by Ellman's method; type: cell-free
Butyrylcholinesterase, sequence (Q9JKC1 whole entry): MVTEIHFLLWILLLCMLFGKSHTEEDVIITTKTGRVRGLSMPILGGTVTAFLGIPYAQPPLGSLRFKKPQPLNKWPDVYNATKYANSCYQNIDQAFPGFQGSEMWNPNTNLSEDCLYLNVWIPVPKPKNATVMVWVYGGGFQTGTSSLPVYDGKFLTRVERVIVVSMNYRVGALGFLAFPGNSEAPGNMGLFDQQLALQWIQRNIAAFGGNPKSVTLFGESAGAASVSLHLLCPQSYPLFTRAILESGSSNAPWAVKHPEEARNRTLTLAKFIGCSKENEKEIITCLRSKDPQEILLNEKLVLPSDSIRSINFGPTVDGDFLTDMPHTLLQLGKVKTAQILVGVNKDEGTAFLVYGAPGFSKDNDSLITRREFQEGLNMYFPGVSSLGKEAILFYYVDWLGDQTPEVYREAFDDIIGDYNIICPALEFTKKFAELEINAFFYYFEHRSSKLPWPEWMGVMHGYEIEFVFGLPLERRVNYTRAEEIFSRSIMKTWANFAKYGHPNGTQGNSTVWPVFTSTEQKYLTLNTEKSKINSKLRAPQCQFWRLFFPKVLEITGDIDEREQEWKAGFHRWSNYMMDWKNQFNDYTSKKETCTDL

[20] = Cmax in human plasma at 1 mg, po; type: ADME, cell-free; parameters: route oral, dose 1 mg
[21] = Toxicity in Sprague-Dawley rat assessed as animal death at upto 30 mg/kg, po for 4 weeks; type: organism-based; conditions: in vivo, 672 h
[22] = biological target: Cytochrome P450 3A4 (Homo sapiens, UniProt P08684); test: Inhibition of CYP3A4 in human hepatocytes; type: ADME, cell-based, Hepatocyte
Cytochrome P450 3A4, sequence (P08684 whole entry): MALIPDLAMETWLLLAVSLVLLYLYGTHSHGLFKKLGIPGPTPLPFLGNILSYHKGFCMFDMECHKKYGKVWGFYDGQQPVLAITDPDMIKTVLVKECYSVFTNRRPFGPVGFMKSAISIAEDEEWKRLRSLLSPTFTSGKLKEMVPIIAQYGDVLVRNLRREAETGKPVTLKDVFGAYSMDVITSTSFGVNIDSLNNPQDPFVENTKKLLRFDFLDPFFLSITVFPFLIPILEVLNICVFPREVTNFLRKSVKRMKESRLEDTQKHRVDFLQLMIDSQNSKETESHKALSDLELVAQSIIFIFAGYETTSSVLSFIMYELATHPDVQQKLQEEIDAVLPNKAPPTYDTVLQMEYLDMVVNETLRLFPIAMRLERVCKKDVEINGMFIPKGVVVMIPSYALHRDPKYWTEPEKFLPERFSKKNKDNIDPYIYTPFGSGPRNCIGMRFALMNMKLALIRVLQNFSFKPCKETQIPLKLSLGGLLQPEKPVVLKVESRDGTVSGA

[23] = Permeability in human Caco-2 cells at 2 to 50 uM; type: ADME, cell-based; conditions: dose 2-50 µM, read-out: permeability
[24] = biological target: T1, Acetylcholinesterase (Mus musculus) (UniProt P21836); test: Ex vivo inhibition of AChE in ICR mouse hippocampal homogenate at 2 mg/kg, ig using acetylthiocholine iodide as substrate measured after 30 to 240 mins by DTNB reagent based assay; type: functional, organism-based; conditions: time 30-240 min
T1 sequence (whole entry): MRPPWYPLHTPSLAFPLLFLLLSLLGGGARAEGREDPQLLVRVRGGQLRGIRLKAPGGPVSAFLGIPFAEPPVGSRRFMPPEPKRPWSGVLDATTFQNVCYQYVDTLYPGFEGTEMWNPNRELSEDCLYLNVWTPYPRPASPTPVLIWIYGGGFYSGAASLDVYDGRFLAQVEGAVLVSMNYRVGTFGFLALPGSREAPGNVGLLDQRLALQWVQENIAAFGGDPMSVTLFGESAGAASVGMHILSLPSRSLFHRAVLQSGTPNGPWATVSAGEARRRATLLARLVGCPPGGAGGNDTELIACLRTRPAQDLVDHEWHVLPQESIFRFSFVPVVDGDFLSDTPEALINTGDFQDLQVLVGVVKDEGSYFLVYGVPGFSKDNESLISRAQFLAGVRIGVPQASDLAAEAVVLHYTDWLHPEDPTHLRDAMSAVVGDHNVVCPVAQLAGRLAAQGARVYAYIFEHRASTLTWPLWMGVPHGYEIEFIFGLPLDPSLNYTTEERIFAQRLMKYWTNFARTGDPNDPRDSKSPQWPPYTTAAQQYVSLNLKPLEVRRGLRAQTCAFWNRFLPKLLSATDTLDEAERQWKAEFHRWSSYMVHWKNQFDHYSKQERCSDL

[25] = Terminal half life in human plasma at 1 mg, po; type: ADME, cell-free; conditions: read-out: beta t1/2 (converted)
[26] = Oral bioavailability in Sprague-Dawley rat at 0.5 mg/kg; type: ADME, organism-based; conditions: in vivo
[27] = biological target: Acetylcholinesterase (Homo sapiens, UniProt P22303); test: Binding affinity to CM5 sensor chip immobilized recombinant human AChE assessed as dissociation constant at 298.15 K by surface plasmon resonance assay
Acetylcholinesterase, sequence (P22303 whole entry): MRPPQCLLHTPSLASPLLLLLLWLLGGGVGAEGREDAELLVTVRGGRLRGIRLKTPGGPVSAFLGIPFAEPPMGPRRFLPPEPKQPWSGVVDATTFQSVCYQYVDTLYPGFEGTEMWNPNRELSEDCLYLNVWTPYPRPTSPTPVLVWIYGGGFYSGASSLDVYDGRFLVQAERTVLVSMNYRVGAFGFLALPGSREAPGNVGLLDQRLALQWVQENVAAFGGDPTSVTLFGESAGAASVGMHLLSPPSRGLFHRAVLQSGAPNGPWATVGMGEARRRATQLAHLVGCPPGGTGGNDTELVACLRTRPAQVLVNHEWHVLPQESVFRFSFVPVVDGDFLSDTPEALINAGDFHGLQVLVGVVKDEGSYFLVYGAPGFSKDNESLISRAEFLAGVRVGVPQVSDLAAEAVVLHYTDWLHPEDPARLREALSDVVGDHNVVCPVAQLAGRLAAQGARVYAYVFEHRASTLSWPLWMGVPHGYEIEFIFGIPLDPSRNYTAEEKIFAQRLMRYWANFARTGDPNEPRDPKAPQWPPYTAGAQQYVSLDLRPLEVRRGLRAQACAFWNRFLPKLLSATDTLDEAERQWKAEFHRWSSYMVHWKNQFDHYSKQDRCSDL

[28] = Efflux ratio of apparent permeability across basolateral to apical side over apical to basolateral side in human Caco-2 cells; type: ADME, cell-based
[29] = system: Mus musculus; test: Improvement in learning and spatial memory in APP/PS1 double mutant-transgenic mouse model assessed as increase in number of platform crossings at 0.5 to 1 mg/kg, po for 3 months measured during probe trial by Morris water maze test; type: functional, organism-based; conditions: dose 0.5-1 mg/kg
[30] = Genotoxicity in Salmonella typhimurium TA97 by Ames test; type: toxicity; conditions: salmonella enterica subsp. enterica serovar typhimurium
[31] = Half life in Sprague-Dawley rat plasma at 10 mg/kg, po; type: ADME, organism-based
[32] = biological target: T1, Acetylcholinesterase (Mus musculus); test: Ex vivo inhibition of AChE in ICR mouse cortex homogenate at 2 mg/kg, ig using acetylthiocholine iodide as substrate measured after 30 to 240 mins by DTNB reagent based assay; type: functional, organism-based; conditions: time 30-240 min
[33] = AUC(0 to infinity) in Sprague-Dawley rat brain at 10 mg/kg, po; type: ADME, organism-based; parameters: route oral, time infinity, dose 10 mg/kg
[34] = Tmax in Sprague-Dawley rat plasma at 10 mg/kg, po; type: ADME, organism-based
[35] = biological target: Voltage-gated inwardly rectifying potassium channel KCNH2 (Homo sapiens, UniProt Q12809); test: Inhibition of human ERG
Voltage-gated inwardly rectifying potassium channel KCNH2, sequence (Q12809 whole entry): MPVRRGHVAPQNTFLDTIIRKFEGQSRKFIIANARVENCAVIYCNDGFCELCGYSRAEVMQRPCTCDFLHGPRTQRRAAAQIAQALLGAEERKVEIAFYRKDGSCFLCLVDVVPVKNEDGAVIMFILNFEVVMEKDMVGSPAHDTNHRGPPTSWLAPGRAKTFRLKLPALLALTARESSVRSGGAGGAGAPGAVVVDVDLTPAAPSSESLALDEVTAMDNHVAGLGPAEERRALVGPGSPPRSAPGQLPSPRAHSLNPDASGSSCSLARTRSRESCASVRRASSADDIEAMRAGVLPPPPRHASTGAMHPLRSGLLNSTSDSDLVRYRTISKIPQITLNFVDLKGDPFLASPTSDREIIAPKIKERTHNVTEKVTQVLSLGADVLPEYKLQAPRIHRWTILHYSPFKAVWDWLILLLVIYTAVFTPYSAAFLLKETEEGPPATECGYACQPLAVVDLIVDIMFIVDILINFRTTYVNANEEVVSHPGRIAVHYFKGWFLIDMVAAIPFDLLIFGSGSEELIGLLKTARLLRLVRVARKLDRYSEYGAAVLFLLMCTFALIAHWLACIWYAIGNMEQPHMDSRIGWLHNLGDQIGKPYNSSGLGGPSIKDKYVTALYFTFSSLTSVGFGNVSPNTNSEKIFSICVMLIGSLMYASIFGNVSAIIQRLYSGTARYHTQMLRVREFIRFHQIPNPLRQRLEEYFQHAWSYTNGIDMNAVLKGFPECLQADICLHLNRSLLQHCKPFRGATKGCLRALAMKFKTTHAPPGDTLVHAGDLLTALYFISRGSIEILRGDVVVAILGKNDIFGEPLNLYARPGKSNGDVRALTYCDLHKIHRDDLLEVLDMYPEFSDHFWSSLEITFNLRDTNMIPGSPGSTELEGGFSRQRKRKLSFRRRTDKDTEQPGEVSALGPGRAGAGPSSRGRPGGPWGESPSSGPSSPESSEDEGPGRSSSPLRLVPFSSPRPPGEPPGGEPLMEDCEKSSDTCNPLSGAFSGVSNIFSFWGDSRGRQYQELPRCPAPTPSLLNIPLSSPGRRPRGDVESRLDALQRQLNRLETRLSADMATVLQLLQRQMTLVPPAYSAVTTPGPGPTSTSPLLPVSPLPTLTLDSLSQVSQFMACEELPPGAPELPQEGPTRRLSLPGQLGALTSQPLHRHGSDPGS

[36] = Cardiotoxicity in Beagle dog assessed as effect on […] at 0.1 to 1 mg/kg; type: toxicity, organism-based, Canis lupus familiaris; conditions: in vivo, dose 0.1-1 mg/kg
[37] = Tmax in human plasma at 8 mg, po; type: ADME, cell-free
[38] = biological target: Cytochrome P450 2C9 (Homo sapiens, UniProt P11712); test: Inhibition of CYP2C9 in human hepatocytes; type: ADME, cell-based, Hepatocyte
Cytochrome P450 2C9, sequence (P11712 whole entry): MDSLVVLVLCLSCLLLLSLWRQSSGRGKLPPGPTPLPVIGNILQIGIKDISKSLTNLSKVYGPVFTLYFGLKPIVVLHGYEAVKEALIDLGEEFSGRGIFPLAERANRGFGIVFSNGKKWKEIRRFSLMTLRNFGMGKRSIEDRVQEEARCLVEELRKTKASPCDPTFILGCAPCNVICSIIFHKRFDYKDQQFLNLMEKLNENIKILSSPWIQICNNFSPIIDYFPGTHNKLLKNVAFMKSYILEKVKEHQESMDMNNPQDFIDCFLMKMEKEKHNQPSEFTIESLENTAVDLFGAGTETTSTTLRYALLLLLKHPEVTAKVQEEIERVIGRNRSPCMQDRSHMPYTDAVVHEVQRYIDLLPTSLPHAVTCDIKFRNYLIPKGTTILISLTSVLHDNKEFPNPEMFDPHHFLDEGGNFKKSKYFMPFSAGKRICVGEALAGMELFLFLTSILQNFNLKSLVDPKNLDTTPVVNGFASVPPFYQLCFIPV

[39] = Selectivity ratio of IC50 for human ERG to IC50 for rat cortex homogenate acetylcholinesterase
[40] = Terminal half life in human plasma at 2 mg, po; type: ADME, cell-free; conditions: read-out: beta t1/2 (converted)
[41] = Ratio of drug concentration in brain to plasma of Sprague-Dawley rat at 10 mg/kg, po; type: ADME, organism-based; conditions: read-out: BPR
[42] = biological target: Cytochrome P450 2C19 (Homo sapiens, UniProt P33261); test: Inhibition of CYP2C19 in human hepatocytes; type: ADME, cell-based, Hepatocyte
Cytochrome P450 2C19, sequence (P33261 whole entry): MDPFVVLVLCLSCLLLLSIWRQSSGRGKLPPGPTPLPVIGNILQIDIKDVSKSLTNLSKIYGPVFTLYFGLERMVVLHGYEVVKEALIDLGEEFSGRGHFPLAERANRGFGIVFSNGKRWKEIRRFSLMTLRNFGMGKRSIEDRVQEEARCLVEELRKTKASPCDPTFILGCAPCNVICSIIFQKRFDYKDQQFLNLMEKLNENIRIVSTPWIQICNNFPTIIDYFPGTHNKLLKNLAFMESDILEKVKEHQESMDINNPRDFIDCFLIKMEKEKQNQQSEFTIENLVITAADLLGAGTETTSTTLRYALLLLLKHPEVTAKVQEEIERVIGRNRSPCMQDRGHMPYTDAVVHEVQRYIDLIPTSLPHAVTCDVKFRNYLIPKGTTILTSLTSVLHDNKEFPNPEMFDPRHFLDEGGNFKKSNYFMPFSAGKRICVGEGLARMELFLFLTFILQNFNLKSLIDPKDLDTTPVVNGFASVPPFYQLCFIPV

[43] = Tmax in human plasma at 2 mg, po; type: ADME, cell-free
[44] = Cardiotoxicity in Beagle dog assessed as effect on QT interval at 0.1 to 1 mg/kg; type: toxicity, organism-based, Canis lupus familiaris; conditions: in vivo, dose 0.1-1 mg/kg
[45] = MRT (0 to infinity) in Beagle dog at 0.25 mg/kg, iv; type: ADME, organism-based, Canis lupus familiaris; conditions: in vivo

COc1cc2c(cc1OC)C(=O)C(CC1(F)CCN(Cc3ccccc3F)CC1)C2 (stereo not given)
Cmax [1]: 8.61 ng/mL | Tmax [2]: 1.5 h | AUC(0-t) [3]: 1080 ng·h/mL | Activity [4]: Non-Toxic | AUC(0-inf) [5]: 157 ng·h/mL | half-life [6]: 23.2 h | Activity [7]: Non-Toxic | IC50 [8]: > 30 µM | Activity [9]: Non-Toxic | Cmax [10]: 23.5 ng/mL | Activity [11]: Non-Toxic | half-life [12]: 30.8 h | Activity [13]: Active | half-life [14]: 6.99 h | MRT inf [15]: 5.21 h | Vd [16]: 23.2 L/kg | clearance [17]: 23.7 mL/min/kg | bioavailability [18]: 61.3% | IC50 [19]: 31.7 µM | Cmax [20]: 1.19 ng/mL | Activity [21]: Non-Toxic | IC50 [22]: > 30 µM | Papp at up to 50 µM [23]: 0.574 ×10⁻⁶ cm/s | inhibition [24]: Active | half-life [25]: 14.2 h | bioavailability [26]: 45.3% | Kd [27]: 0.0035 µM | efflux ratio [28]: 0.67 | Activity [29]: Active | Activity [30]: Non-Toxic | half-life [31]: 5.57 h | inhibition [32]: Active | AUC(0-inf) [33]: 6430 ng·h/mL | Tmax [34]: 0.5 h | IC50 [35]: 9.23 µM | Activity [36]: Non-Toxic | Tmax [37]: 1.13 h | IC50 [38]: 4.77 µM | Ratio IC50 [39]: 10700 | half-life [40]: 20.7 h | Kp [41]: 5.4 | IC50 [42]: > 30 µM | Tmax [43]: 1.5 h | Activity [44]: Non-Toxic | MRT inf [45]: 23.6 h
